In brackets after ≈: the same amount, converted by molar mass. Values belong to the compound of their own block, whether it stands above or below them.
What was measured:
Type in all cases: physicochemical
[1] = Dissolution study of compound A tablets (solubilizer and glidant study)
[2] = Heating of the crystal form by DSC (solvent removal); conditions: heated to 150° C. by DSC
Procedure: The instrument model for differential scanning calorimetry analysis was DSC Q200 or Discovery DSC 250 (TA, USA). Samples were accurately weighed and placed in a punctured sample pot for DSC, and the exact mass of the sample was recorded. The samples were heated to the final temperature (e.g. 300° C. or 350° C.) at a ramp rate of 10° C./min.
The collected crystal form I of compound A was subjected to DSC analysis by General method 4. […] The crystal form I of compound A was heated to 150° C. by DSC and then the solvent was removed.

[3] = Stability study of the crystal form I of compound A and the crystal form I of compound A p-toluenesulfonate (HPLC, XRPD); conditions: 7 days at 40° C./75% RH and 60° C.
Procedure: A certain amount of samples of the crystal form I of compound A and the crystal form I of compound A p-toluenesulfonate (Batch No.: PTSA-A1) were placed in a stability test chamber, and kept at 40° C./75%RH and 60° C. for 7 days, respectively. The samples were tested by HPLC and XRPD at various time points.

[4] = Solubility study of the starting material (the crystal form I of compound A) in different solvents; conditions: in tetrahydrofuran, acetone, 2-butanone, acetonitrile and ethyl acetate
Procedure: About 2 mg of the starting material was weighed and added into a sample bottle, and different solvents were added respectively, until the starting material was dissolved.

[5] = Solubility study in SGF, FaSSIF and FeSSIF (HPLC of filtrate, XRPD of solid)
Procedure: The solubilities of the crystal form I of compound A and the crystal form I of compound A p-toluenesulfonate in SGF (simulated gastric fluid), FaSSIF (fasted state simulated intestinal fluid) and FeSSIF (fed state simulated intestinal fluid) were studied.
The solubilities of samples in SGF, FaSSIF and FeSSIF at 37° C. for 24 hours were determined. 40 mg of the sample was placed in a sample bottle, and 1.5 mL of solvent was added. The mixture was mixed well, and shaken on a shaker at 200 rpm for 24 hours. The suspension was filtered at 0.5, 2 and 24 hours. The filtrate was analyzed by HPLC, and the solid was tested by XRPD.

[6] = Cooling crystallization: solubility of the crystal form I of compound A in heated solvents; conditions: organic solvent or mixture, thermodynamic from solid
Procedure: About 30 mg of the crystal form I of compound A was added to different solvents and heated until dissolved. The resulting solution was then slowly cooled to room temperature. PLM and XRPD tests were performed on the resulting solid crystal forms.

[7] = Dynamic moisture adsorption and desorption analysis (DVS)
Procedure: The instrument model used for dynamic moisture adsorption and desorption analysis was IGA Sorp (Hidentity Isochema). The samples were measured in a gradient mode with a moisture range of 0% to 90%, wherein the humidity increment of each gradient was 10%.

[8] = Grinding research of crystal forms (XRPD before and after grinding); conditions: ground in a mortar at room temperature
From the text: The solid XRPDs before and after grinding were compared.

[9] = Stability study of the crystal form VI of compound A (high temperature, high humidity, light)

SMILES: O=C(Nc1ccc(OC(F)(F)Cl)cc1)c1cnc(N2CC[C@@H](F)C2)c(-c2cnccn2)c1 [compound A, (R)-N-(4-(chlorodifluoromethoxy)phenyl)-6-(3-fluoropyrrolidin-1-yl)-5-(pyrazin-2-yl)nicotinamide]
dissolution of compound A in the formulation ([1]; colloidal silica 200 (glidant) added): improved | dissolution of compound A in the formulation ([1]; increasing amount of sodium lauryl sulfate (solubilizer)): decreased

SMILES: O=C(Nc1ccc(OC(F)(F)Cl)cc1)c1cnc(N2CC[C@@H](F)C2)c(-c2cnccn2)c1 [crystal form I of compound A, (R)-N-(4-(chlorodifluoromethoxy)phenyl)-6-(3-fluoropyrrolidin-1-yl)-5-(pyrazin-2-yl)nicotinamide]
crystal form after heating and solvent removal [2]: changed into the crystal form VI | crystal form stability (XRPD) [3]: remained unchanged | solubility in solvents (in words) [4]: good solubility | solubility compared with the other form ([5]; FeSSIF vehicle, 0.5 and 2 hours, 37° C.): higher solubility than that of the p-toluenesulfonate | crystal form of the undissolved solid (XRPD) ([5]; SGF, FaSSIF and FeSSIF for 2 hours): changed | dependence of solubility on pH ([5]; SGF, FaSSIF, FeSSIF, 37° C.): affected by pH value | Solubility ([6]; ACN, became clear at 50° C.): 298 mg/mL (≈ 642 mM) | Solubility ([6]; Acetone, became clear at 50° C.): 150 mg/mL (≈ 324 mM) | Solubility ([6]; Isobutanol, became clear at 70° C.): 10.1 mg/mL (≈ 21.8 mM) | Solubility ([6]; MeOH, became clear at 50° C.): 34.1 mg/mL (≈ 73.5 mM) | water absorption ([7]; 0-60%RH): about 0.2% | water absorption ([7]; 0-80%RH): about 0.7% | water absorption ([7]; 0-90%RH): about 1.3% | hygroscopicity (DVS) ([7]; moisture range 0% to 90%): slightly hygroscopic

Now from value to compound:

solid form / crystallinity after grinding (XRPD) ([8]; listed as crystal form III): transformed into amorphous forms
SMILES: O=C(Nc1ccc(OC(F)(F)Cl)cc1)c1cnc(N2CC[C@@H](F)C2)c(-c2cnccn2)c1 [crystal form III of compound A, (R)-N-(4-(chlorodifluoromethoxy)phenyl)-6-(3-fluoropyrrolidin-1-yl)-5-(pyrazin-2-yl)nicotinamide]

stability (appearance, crystal form and related substances) ([9]; 10 days under the condition of light): stable | stability (appearance, crystal form and related substances) ([9]; 30 days, 60° C., 25° C./92.5%RH, 40° C./75%RH, and light (visible 4500 Lux, near-UV 85µw/cm^2)): stable | crystal form after stability test (XRPD) ([9]; high temperature, high humidity, high temperature and high humidity, light): not changed | water absorption ([7]; 0-80%RH): 1.1852% | water absorption ([7]; 0-90%RH): 1.7452% | water absorption ([7]; 10%RH): 0.1389% | crystal form after DVS test (XRPD) ([7]; before and after DVS test): not changed | solid form / crystallinity after grinding (XRPD) [8]: slightly decreased
SMILES: O=C(Nc1ccc(OC(F)(F)Cl)cc1)c1cnc(N2CC[C@@H](F)C2)c(-c2cnccn2)c1 [crystal form VI of compound A, (R)-N-(4-(chlorodifluoromethoxy)phenyl)-6-(3-fluoropyrrolidin-1-yl)-5-(pyrazin-2-yl)nicotinamide]

solid form / crystallinity after grinding (XRPD) ([8]; listed as crystal form VII): transformed into amorphous forms
SMILES: O=C(Nc1ccc(OC(F)(F)Cl)cc1)c1cnc(N2CC[C@@H](F)C2)c(-c2cnccn2)c1 [crystal form VII of compound A, (R)-N-(4-(chlorodifluoromethoxy)phenyl)-6-(3-fluoropyrrolidin-1-yl)-5-(pyrazin-2-yl)nicotinamide]
